In patent US20260217983A1, “SULFONIUM SALT PHOTOINITIATORS AND METHODS OF LED CURING A COMPOSITION WITH SAID SULFONIUM SALT PHOTOINITIATORS” (ARKEMA FRANCE, priority 2022, published 2026):

Tests used:
[1] = Molar extinction coefficient in acetonitrile; type: physicochemical
Method: (§1) The curing performance of individual products prepared above was assessed using real time FT-IR measurement. The photoinitiators were dissolved in cycloaliphatic epoxy resin UViCure S105 (available from Sartomer) at the indicated wt % loading, applied onto the FT-IR measurement plate and irradiated with the indicated LED light source. The polymerization rate and final reactive group conversion were determined by monitoring the change of the relevant infrared band near 900 cm^−1 corresponding to an epoxide ring during irradiation. The molar extinction coefficients for the photoinitiator products (ε, expressed in M^−1 cm^−1) were determined in acetonitrile at 10^-3 M or 10^-5 M concentration.

[2] = Real time FT-IR curing performance at 405 nm in UViCure S105/TMPTA (1:1); details: LED @405 nm (110 mW/cm^2), 20 μm thickness, laminated
Method: (§2) The curing performance of individual products prepared above was assessed using real time FT-IR measurement. The photoinitiators were dissolved either in neat trimethylolpropane triacrylate (TMPTA; available as SR351 from Sartomer) or in a 1:1 (w/w) mixture of TMPTA and UViCure S105 as indicated, applied onto the FT-IR measurement plate, laminated to prevent oxygen inhibition, and irradiated with the indicated LED light source. For the epoxy component, the polymerization rate and final reactive group conversion were determined by monitoring the change of the relevant infrared band near 900 cm^−1 corresponding to an epoxide ring. For the acrylate component, the C═C stretch band near 1625 cm^−1 was used.

[3] = Real time FT-IR curing performance at 405 nm in neat TMPTA; details: 20 μm thickness, laminated; for Acrylate Polymerization rate Rp/[M0]*100: LED @405 nm (110 W/cm^2); for Acrylate Final conversion: LED @405 nm (110 mW/cm^2)
Method: as §2

[4] = Colour index 'b' of formulations before and after polymerization; type: physicochemical; details: UViCure S105E, thin samples (20 μm), under air, 300 s irradiation
Method: The low yellowing characteristics can be measured by the Colour index ‘b’ value on cured films.
Formulations comprising the photoinitiators and neat UViCure S105E resin were prepared as described at example 2.

[5] = Belt curing performance (thumb-twist depth cure) in hybrid acrylate/epoxy resin; details: 24 μm film, under air, PI 2 wt %
Method: (§3) The photoinitiators were dissolved either in neat UViCure S105E resin or a hybrid acrylate/epoxy resin (prepared by mixing 60 wt parts UViCure S105E, 15 wt parts UViCure S130 and 25 wt parts SR492; all product are available from Sartomer). Formulations were prepared by combining all materials in the given proportions and then stirring at 30-40° C. until the samples were fully homogeneous; the formulations were then allowed to cool to room temperature. For all experiments, the formulations were cured on Leneta Form 3N-31 gloss finish paper at 6 μm and 24 μm film thickness using a belt-cure instrument; the films were prepared using a K-bar. All films were then cured under an LED lamp at a given belt speed. ‘Depth cure’ for each formulation was assessed using the ‘thumb-twist’ test (where no visible mark is made when a thumb is pressed down firmly onto the coating with a twisting motion), and from the belt speed; the calculated cure speed (in m/min) is given.

[6] = Real time FT-IR curing performance in UViCure S105 at 365 and 385 nm; details: for Polymerization rate Rp/[M0]*100 / Final conversion: UViCure S105, 20 μm thickness, under air; for Final conversion: epoxide band; for cure speed compared with photoinitiators known from prior art such as Omnicat BL 550: LED lamp conditions, Example 2
Method: as §1

[7] = Belt curing performance (thumb-twist depth cure) in UViCure S105E resin; details: 24 μm film, under air, PI 2 wt %
Method: as §3

[8] = LED 365 nm, 100% intensity (=70.1 mJ/cm^2), belt speed 40 m/min
[9] = LED @365 nm (120 W/cm^2), PI loading 1 wt % (Omnicat BL 550 4 wt %; Speedcure 938/CPTX 1/0.5 wt %)

SMILES | ε at 365 nm [1] | ε at 385 nm [1] | Polymerization rate Rp/[M0]*100 [6, 9] | Final conversion ([6]; LED @365 nm (120 W/cm^2)) | Polymerization rate Rp/[M0]*100 ([6]; LED @385 nm (160 W/cm^2)) | Final conversion ([6]; LED @385 nm (160 W/cm^2)) | also measured
CCCOc1ccc(Cl)c2c(=O)c3cc([S+](c4ccc(C)cc4)c4ccc(C(=O)c5ccccc5)cc4)ccc3sc12 (stereo not shown) [Photoinitiator 3, (4-benzoylphenyl)(8-chloro-9-oxo-5-propoxy-9H-thioxanthen-2-yl)(4-methylphenyl)sulfonium hexafluorophosphate] | 17066 M⁻¹ cm⁻¹ | 17083 M⁻¹ cm⁻¹ | 2.70 s⁻¹ | 38% | 2.46 s⁻¹ | 37% | Acrylate Final conversion [2]: 75%; Acrylate Polymerization rate Rp/[M0]*100 [2]: 5.69 s⁻¹; Epoxy Final conversion [2]: 35%; Epoxy Polymerization rate Rp/[M0]*100 [2]: 2.43 s⁻¹; Acrylate Polymerization rate Rp/[M0]*100 [3]: 5.88 s⁻¹; Acrylate Final conversion [3]: 45%; Colour index ‘b’ value After Polymerization ([4]; LED @365 nm (120 mW/cm^2)): 7.40; Colour index ‘b’ value Before Polymerization ([4]; LED @365 nm (120 mW/cm^2)): 11.28; Colour index ‘b’ value After Polymerization ([4]; LED @385 nm (160 mW/cm^2)): 7.48; Colour index ‘b’ value Before Polymerization ([4]; LED @385 nm (160 mW/cm^2)): 8.40; Cure speed in hybrid acrylate/epoxy resin [5, 8]: 2.2 m/min; Cure speed in hybrid acrylate/epoxy resin ([5]; LED 395 nm, 80 m/min, 50% intensity (=36.9 mJ/cm^2)): no cure; Cure speed in UViCure S105E resin [7, 8]: 4.8 m/min; Cure speed in UViCure S105E resin ([7]; LED 395 nm, 40 m/min, 100% intensity (=164.5 mJ/cm^2)): 8.7 m/min
COC(=O)COc1ccc2sc3ccc(-[s+]4c5ccccc5c(=O)c5cc(OCC(=O)OC)ccc54)cc3c(=O)c2c1 (stereo not shown) [Photoinitiator 6, 2-(2-methoxy-2-oxoethoxy)-10-[7-(2-methoxy-2-oxoethoxy)-9-oxo-9H-thioxanthen-2-yl]-9-oxo-9H-thioxanthen-10-ium Hexafluorophosphate] | 18314 M⁻¹ cm⁻¹ | 24656 M⁻¹ cm⁻¹ | 0.72 s⁻¹ | 35% | 2.01 s⁻¹ | 36% | –
CC(C)c1ccc2c(c1)c(=O)c1ccccc1[s+]2-c1ccc(Oc2ccccc2)cc1 (stereo not shown) [Photoinitiator 12, 9-oxo-10-(4-phenoxyphenyl)-2-(propan-2-yl)-9H-thioxanthen-10-ium Hexafluorophosphate] | 185 M⁻¹ cm⁻¹ | 137 M⁻¹ cm⁻¹ | 2.93 s⁻¹ | 32% | 2.74 s⁻¹ | 36% | –
CCCOc1ccc(Cl)c2c1[SH](c1ccc(Oc3ccccc3)cc1)c1ccccc1C2=O (stereo not shown) [Photoinitiator 16, 1-chloro-9-oxo-10-(4-phenoxyphenyl)-4-propoxy-9H-thioxanthen-10-ium hexafluorophosphate] | 20030 M⁻¹ cm⁻¹ | 6830 M⁻¹ cm⁻¹ | 2.88 s⁻¹ | 40% | 3.71 s⁻¹ | 38% | –
COc1ccc(-c2ccc(-[s+]3c4ccccc4c(=O)c4cc(C(C)C)ccc43)cc2)cc1 (stereo not shown) [Photoinitiator 26, 10-(4′-methoxy[1,1-biphenyl]-4-yl)-9-oxo-2-(propan-2-yl)-9H-thioxanthen-10-ium hexafluorophosphate] | 3600 M⁻¹ cm⁻¹ | 1622 M⁻¹ cm⁻¹ | 4.94 s⁻¹ | 26% | 3.08 s⁻¹ | 28% | cure speed compared with photoinitiators known from prior art such as Omnicat BL 550 [6]: higher cure speed
COc1ccccc1-c1cc(-[s+]2c3ccccc3c(=O)c3cc(C(C)C)ccc32)ccc1OC (stereo not shown) [Photoinitiator 28, 10-(2′,6-dimethoxy[1,1′-biphenyl]-3-yl)-9-oxo-2-(propan-2-yl)-9H-thioxanthen-10-ium hexafluorophosphate] | 426 M⁻¹ cm⁻¹ | 268 M⁻¹ cm⁻¹ | 2.29 s⁻¹ | 34% | 5.78 s⁻¹ | 36% | –
CCCOc1ccc(Cl)c2c(=O)c3ccccc3[s+](-c3ccc(-c4ccc(OC)cc4)cc3)c12 (stereo not shown) [Photoinitiator 32, 1-chloro-10-(4′-methoxy[1,1′-biphenyl]-4-yl)-9-oxo-4-propoxy-9H-thioxanthen-10-ium Hexafluorophosphate] | 4507 M⁻¹ cm⁻¹ | 2055 M⁻¹ cm⁻¹ | 3.73 s⁻¹ | 28% | 4.86 s⁻¹ | 33% | cure speed compared with photoinitiators known from prior art such as Omnicat BL 550 [6]: higher cure speed
CCc1cc(CC)c2sc3ccc(-[s+]4c5ccccc5c(=O)c5cc(CC)cc(CC)c54)cc3c(=O)c2c1 (stereo not shown) [Photoinitiator 40, 10-(5,7-diethyl-9-oxo-9H-thioxanthen-2-yl)-2,4-diethyl-9-oxo-9H-thioxanthen-10-ium Hexafluorophosphate] | 19117 M⁻¹ cm⁻¹ | 15504 M⁻¹ cm⁻¹ | 2.72 s⁻¹ | 18% | 5.89 s⁻¹ | 38% | Acrylate Final conversion [2]: 83%; Acrylate Polymerization rate Rp/[M0]*100 [2]: 10.81 s⁻¹; Epoxy Final conversion [2]: 52%; Epoxy Polymerization rate Rp/[M0]*100 [2]: 6.46 s⁻¹; Acrylate Polymerization rate Rp/[M0]*100 [3]: 5.86 s⁻¹; Acrylate Final conversion [3]: 65%
